Assay results taken from PubChem BioAssay (NCI).
“And” between values parts separate entries of the source, which are not always exact repeats. Identical values can stand only once.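 The compound was tested at five concentrations on cells cultured in 96-well plates, with a 48-hour exposure period. GI50: concentration for 50% inhibition of growth. TGI: total growth inhibition.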

Tests used:
Experiment in all cases: growth of human tumour cells (NCI), 48 h
786-0 renal = system: 786-0 renal
CCRF-CEM leukemia = system: CCRF-CEM leukemia
HCT-116 colon = system: HCT-116 colon
MDA-MB-231 breast = system: MDA-MB-231 breast
MOLT-4 leukemia = system: MOLT-4 leukemia
OVCAR-8 ovarian = system: OVCAR-8 ovarian
SK-OV-3 ovarian = system: SK-OV-3 ovarian
SNB-19 CNS = system: SNB-19 CNS
U251 CNS = system: U251 CNS
UO-31 renal = system: UO-31 renal

Compound	TGI (786-0 renal) [µM]	GI50 (CCRF-CEM leukemia) [µM]	GI50 (HCT-116 colon) [µM]	TGI (HCT-116 colon)	TGI (MDA-MB-231 breast) [µM]	GI50 (MOLT-4 leukemia) [µM]	GI50 (OVCAR-8 ovarian) [µM]	TGI (OVCAR-8 ovarian)	GI50 (SK-OV-3 ovarian) [µM]	TGI (SK-OV-3 ovarian)	TGI (SNB-19 CNS)	TGI (U251 CNS)	GI50 (UO-31 renal) [µM]	TGI (UO-31 renal)	TGI (CCRF-CEM leukemia) [µM]	TGI (MOLT-4 leukemia) [µM]	GI50 (786-0 renal) [µM]	GI50 (MDA-MB-231 breast) [µM]	GI50 (SNB-19 CNS) [µM]	GI50 (U251 CNS) [µM]
CC[C@](C)(O)C(=O)O[C@H]1C(=O)O[C@@H]2C[C@H]3C(C)=CC(=O)[C@@H](O)[C@]3(C)[C@H]3[C@@]4(O)OC[C@]32[C@@H]1[C@@H](C)[C@H]4O	0.832	0.0897	0.22	0.957 µM and 0.376 µM	4.34	0.0366	0.164	1.74 µM and 0.541 µM	1.34	13.9 µM and 4.29 µM	0.674 µM and 0.223 µM	0.41 µM and 0.121 µM	0.662	3.71 µM and 3.78 µM	–	–	–	–	–	–
CC12CCC(=O)C=C1CCC1C2CCC2(C)C(C(=O)Cn3cnc4c(=S)nc[nH]c43)CCC12 (centres undefined)	> 100	–	–	> 100 µM	> 100	–	–	> 100 µM	–	> 100 µM	73.8 µM	> 100 µM	–	> 100 µM	> 100	> 100	–	–	–	–
CCOC(=O)Cc1c[nH]c(=S)[nH]c1=O	> 100	> 100	> 100	> 100 µM	> 100	> 100	> 100	> 100 µM	> 100	> 100 µM	> 100 µM	> 100 µM	> 100	> 100 µM	> 100	> 100	> 100	> 100	> 100	> 100
C=CCC(N[C@H](CO)C(C)C)c1cn(C(=O)OCC)c2ccccc12 (some centres undefined)	72.7	22.4	24.2	68.8 µM	31.2	15.4	21.7	48.2 µM	81.3	> 100 µM	> 100 µM	> 100 µM	45.2	> 100 µM	70.2	34.7	28.4	13.2	59.9	27.4
CC1=C(C(=O)OCc2ccccc2)C(c2ccc3c(c2)OCO3)n2c(nc3ccccc32)N1 (centres undefined)	> 100	0.418	0.42	> 100 µM	> 100	0.753	0.628	> 100 µM	0.467	> 100 µM	> 100 µM	> 100 µM	0.544	> 79.5 µM	> 100	> 100	0.47	> 92.6	0.54	0.464
OCC1OC(n2ccc3c2ncn2ncnc32)C(O)C1O (centres undefined)	> 100	0.596	1.38	> 100 µM	> 100	0.407	0.392	5.68 µM	2.08	> 49.2 µM	> 100 µM	> 100 µM	2.74	> 100 µM	> 100	> 43.1	2.47	1.52	4.7	47.7
Cn1c(=O)c2[nH]c(/N=N/N3CCN(CCO)CC3)nc2n(C)c1=O	> 100	–	–	> 100 µM	> 100	–	–	> 100 µM	–	> 100 µM	> 100 µM	> 100 µM	–	> 100 µM	> 100	> 100	–	–	–	–
O=c1cc(CNc2cc(F)cc(F)c2)c2ccc(I)cc2[nH]1	> 100	0.498	0.492	> 100 µM	> 100	1.06	2.83	> 100 µM	1.11	> 100 µM	> 100 µM	> 100 µM	4.27	> 100 µM	> 57.7	> 100	1.05	77.8	0.637	0.574
CC(C)(C(=O)NN)c1ccccc1	> 100	–	–	> 100 µM	> 100	–	–	> 100 µM	–	> 100 µM	> 100 µM	> 100 µM	–	> 100 µM	> 100	> 100	–	–	–	–
O=S(=O)(c1ccc(NC(=S)NCc2cccnc2)cc1)N1CCCCC1	> 100	0.823	0.47	> 100 µM	> 100	40.3	0.0991	> 100 µM	> 100	> 100 µM	> 100 µM	> 100 µM	21.5	> 100 µM	> 100	> 100	> 100	26.4	9.5	1.82
